Test results published in patent US8697705B2, “Isoindolinone derivatives” (Hoffmann-La Roche Inc., priority 2011, dated 2014).

Experiments:
[1] = target: T1, Recombinant human liver GK1 (GST-GK) (Homo sapiens, UniProt P35557); assay: Glucokinase in vitro assay (G6PDH-coupled, NADH generation, OD340); format: biochemical; settings: 30° C., 5 mM D-glucose, 10% dimethylsulfoxide
T1 construct: made in house; host or cells: E. coli
T1 sequence (P35557 1-466 isoform P35557-2): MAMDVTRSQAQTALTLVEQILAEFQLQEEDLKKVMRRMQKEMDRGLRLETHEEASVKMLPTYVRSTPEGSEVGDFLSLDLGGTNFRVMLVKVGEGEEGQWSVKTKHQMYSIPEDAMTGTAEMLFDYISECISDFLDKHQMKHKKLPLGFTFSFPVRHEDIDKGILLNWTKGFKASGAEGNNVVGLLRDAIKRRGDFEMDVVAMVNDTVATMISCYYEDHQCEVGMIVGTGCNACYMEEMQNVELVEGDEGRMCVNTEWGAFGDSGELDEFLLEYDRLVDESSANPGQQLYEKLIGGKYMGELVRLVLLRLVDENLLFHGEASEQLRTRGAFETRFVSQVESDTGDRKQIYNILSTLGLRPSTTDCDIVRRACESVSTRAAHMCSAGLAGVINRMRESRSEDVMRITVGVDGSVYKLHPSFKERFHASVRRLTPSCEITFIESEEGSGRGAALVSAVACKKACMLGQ
Protocol: Glucokinase In Vitro Assay Protocol:
Glucokinase (GK) was assayed by coupling the production of glucose-6-phosphate to the generation of NADH with glucose-6-phosphate dehydrogenase (G6PDH, 0.75-1 kunits/mg; Boehringer Mannheim, Indianapolis, Ind.) from Leuconostoc mesenteroides as the coupling enzyme (Scheme 2).
Recombinant human liver GK1 was expressed in E. coli as a glutathione S-transferase fusion protein (GST-GK) and was purified by chromatography over a glutathione-Sepharose 4B affinity column using the procedure provided by the manufacturer (Amersham Pharmacia Biotech, Piscataway, N.J.).
The assay was conducted at 30° C. in a flat bottom 96-well tissue culture plate from Costar (Cambridge, Mass.) with a final incubation volume of 120 μL. The incubation reaction contained the following: 25 mM Hepes buffer (pH 7.1), 25 mM KCl, 5 mM D-glucose, 1 mM ATP, 1.8 mM NAD, 2 mM MgCl2, 1 μM sorbitol-6-phosphate, 1 mM dithiothreitol, test drug or 10% dimethylsulfoxide, ˜7 units/ml G6PDH, and GK (see below). All organic reagents were >98% pure and were from Boehringer Mannheim with the exceptions of D-glucose and Hepes which were from Sigma Chemical Co, St Louis, Mo. Test compounds were dissolved in dimethylsulfoxide and were added to the incubation reaction minus GST-GK in a volume of 12 μL to yield a final dimethylsulfoxide concentration of 10%. This mix was pre-incubated in the temperature controlled chamber of a SPECTRAmax 250 microplate spectrophotometer (Molecular Devices Corporation, Sunnyvale, Calif.) for 10 minutes to allow temperature equilibrium and then the reaction was started by the addition of 20 μL GST-GK.
After addition of enzyme, the increase in optical density (OD) at 340 nm was monitored spectrophotometrically to determine the rate of change (OD340 per min). The GK activity (OD340/min) in control wells (10% dimethylsulfoxide minus GK activators) was compared with the activity in wells containing test GK activators, and the concentration of activator that produced a 50% increase in the activity of GK, i.e., the SC1.5, was calculated.

C57BL/6J mice = assay: Glucokinase activator in vivo screen: blood glucose lowering after oral gavage in mice; settings: Mus musculus; vs. control at 2 hours post 25 mg/kg oral dose, C57B6 mice; read-out: % gluc lowering @ 2 H
Protocol: Glucokinase Activator In Vivo Screen Protocol in Lean Mice:
Lean C57BL/6J mice were orally dosed via gavage with Glucokinase (GK) activator following a two hour fasting period. Blood glucose determinations were made at various (e.g. 0, 1, 2, 4 and 8 hours post-oral gavage) times during the study.
C57Bl/6J mice were obtained from Jackson Laboratory (Bar Harbor, Me.) and were maintained in a light-dark cycle with lights on from 0600-1800 hr. For studies in lean mice, the mice were received at age ten weeks and given ad libitum access to control diet (LabDiet 5001 chow, PMI Nutrition, Brentwood, Mo.), and were at least age 11 weeks at the time of study. For studies in the DIO model, the mice were received at age five weeks and given ad libitum access to Bio-Sery F3282 High Fat Diet (Frenchtown, N.J.), and were at least age 16 weeks at the time of study. The experiments were conducted during the light phase of the light-dark cycle. Mice (n=6) are weighed and fasted for a two hour period prior to oral treatment. GK activators are formulated in Gelucire vehicle (Ethanol:Gelucire44/14:PEG400q.s. 4:66:30 v/w/v). For studies in lean mice, the mice were dosed orally with 5.0 μL per gram of body weight (i.e. 5 ml/kg×10.0 mg/ml formulation to equal a 50 mg/kg dose). For studies in DIO mice, the mice were dosed orally with 5.0 μL per gram of body weight (i.e. 5.0 ml/kg×5 mg/ml formulation to equal a 25 mg/kg dose). Immediately prior to dosing, a pre-dose (time zero) blood glucose reading was acquired by snipping off a small portion of the animal's tail and collecting 15 μL blood into a heparinized capillary tube for analysis. Following GK activator administration, additional blood glucose readings were taken at various time points post dose from the same tail wound. Results were interpreted by comparing the mean blood glucose values of vehicle treated mice with GK activator treated mice over the study period.
Table 2 below provides data for % glucose lowering of a representative number of compounds of the present invention vs. control at 2 hours post 25 or 50 mg/kg dose in C57B6 mice: […]

With CC(C)OCCn1ccc(NC(=O)[C@H](CC2CCCC2)N2Cc3c(cccc3C(F)(F)F)C2=O)n1 [Example 17, (S)-3-Cyclopentyl-N-[1-(2-isopropoy-ethyl)-1H-pyrazol-3-yl]-2-(1-oxo-4-trifluoromethyl-1,3-dihydro-isoindol-2-yl)-propionamide] the “SC1.5 (concentration of activator that produced a 50% increase in the activity of GK)” value [1] was 0.179 µM and the change in vivo at 25 mg/kg (C57BL/6J mice) was -40.2%.

O=C(Nc1ccn(C[C@@H](O)CO)n1)[C@H](CC1CCCC1)N1Cc2c(cccc2C(F)(F)F)C1=O [Example 5, (S)-3-Cyclopentyl-N-[1-((R)-2,3-dihydroxy-propyl)-1H-pyrazol-3-yl]-2-(1-oxo-4-trifluoromethyl-1,3-dihydro-isoindol-2-yl)-propionamide] was tested, and the “SC1.5 (concentration of activator that produced a 50% increase in the activity of GK)” value [1] was 0.074 µM and the change in vivo at 25 mg/kg (C57BL/6J mice) was -50.1%.

With O=C(Nc1cnc([C@H](O)CO)cn1)[C@H](CC1CCCC1)N1Cc2c(cccc2C(F)(F)F)C1=O [Example 21, (S)-3-Cyclopentyl-N-[5-((S)-1,2-dihydroxy-ethyl)-pyrazin-2-yl]-2-(1-oxo-4-trifluoromethyl-1,3-dihydro-isoindol-2-yl)-propionamide] the “SC1.5 (concentration of activator that produced a 50% increase in the activity of GK)” value [1] was 0.255 µM and the change in vivo at 25 mg/kg (C57BL/6J mice) was -36.6%.

For O=C(Nc1ccn(C[C@H](O)CO)n1)[C@H](CC1CCCC1)N1Cc2c(cccc2C(F)(F)F)C1=O [Example 6, (S)-3-Cyclopentyl-N-[1-((S)-2,3-dihydroxy-propyl)-1H-pyrazol-3-yl]-2-(1-oxo-4-trifluoromethyl-1,3-dihydro-isoindol-2-yl)-propionamide], the “SC1.5 (concentration of activator that produced a 50% increase in the activity of GK)” value [1] was 0.119 µM and the change in vivo at 25 mg/kg (C57BL/6J mice) was -48.3%.

With COC(C)(C)Cn1ccc(NC(=O)[C@H](CC2CCCC2)N2Cc3c(cccc3C(F)(F)F)C2=O)n1 [Example 7, (S)-3-Cyclopentyl-N-[1-(2-methoxy-2-methyl-propyl)-1H-pyrazol-3-yl]-2-(1-oxo-4-trifluoromethyl-1,3-dihydro-isoindol-2-yl)-propionamide] the “SC1.5 (concentration of activator that produced a 50% increase in the activity of GK)” value [1] was 0.032 µM and the change in vivo at 25 mg/kg (C57BL/6J mice) was -48.2%.

For O=C(Nc1cnccn1)[C@H](CC1CCCC1)N1Cc2c(cccc2C(F)(F)F)C1=O [Example 15, (S)-3-Cyclopentyl-2-(1-oxo-4-trifluoromethyl-1,3-dihydro-isoindol-2-yl)-N-pyrazin-2-yl-propionamide], the “SC1.5 (concentration of activator that produced a 50% increase in the activity of GK)” value [1] was 0.176 µM and the change in vivo at 25 mg/kg (C57BL/6J mice) was -22.5%.
